The record followed here is ChEMBL document CHEMBL2203235, “Optimization of a natural product-based class of γ-secretase modulators” (J Med Chem, 2012).

Structures are written as SMILES.

Series [1] in a line: Modulation of gamma secretase in CHO-2B7 cells assessed as reduction in amyloid beta 40 level after 5 hrs by MSD ELISA. Format: cell-based. The following applies: Cricetulus griseus, CHO-2B7, 5 h. (In general: An ELISA detects its analyte on a solid surface through an enzyme-linked reagent.)
A further series relates to Liver microsomes. Briefly: Metabolic stability in human liver microsomes at 1 uM after 60 mins by LC/MS/MS analysis. The following applies: 1 h.
The nature of series [2]: Modulation of gamma secretase in CHO-2B7 cells assessed as reduction in amyloid beta 42 level after 5 hrs by MSD ELISA. In kind it is cell-based. The following applies: Cricetulus griseus, CHO-2B7, 5 h.

A word on the IC50: it is the concentration that gives 50% inhibition. On to `CCO[C@@H]([C@H]1C[C@@H](C)[C@H]2[C@H](O1)[C@H](O)[C@@]1(C)[C@@H]3CC[C@H]4C(C)(C)[C@@H](O[C@H]5CN(CCN(C)C)CCO5)CC[C@@]45C[C@@]35CC[C@]21C)C(C)(C)O`, for which the results for the IC50 in series [1] and in series [2] were 3.2 µM and 130 nM, respectively. Besides, in the series with Liver microsomes, the Stability result is listed as “Stable”.
On to `CC(C)[C@@H](OC(=O)N1CCC1)[C@H]1C[C@@H](C)[C@H]2[C@H](O1)[C@H](O)[C@@]1(C)[C@@H]3CC[C@H]4C(C)(C)[C@@H](OC(=O)N(C)C)CC[C@@]45C[C@@]35CC[C@]21C`, for which the figures for the IC50 in series [1] and in series [2] were 1.4 µM and 1300 nM, respectively. Further, the Stability result in the series on Liver microsomes was “Stable”.
On to `CC(C)[C@@H](OC(=O)N1CCC1)[C@H]1C[C@@H](C)[C@H]2[C@H](O1)[C@H](O)[C@@]1(C)[C@@H]3CC[C@H]4C(C)(C)[C@@H](OC(=O)N[C@H]5CCNC5=O)CC[C@@]45C[C@@]35CC[C@]21C`, for which the IC50 worked out at 1 µM in series [1] and 400 nM in series [2]. In the series on Liver microsomes, the Stability entry is listed as “Stable”.
Take `CCO[C@@H]([C@H]1C[C@@H](C)[C@H]2[C@H](O1)[C@H](O)[C@@]1(C)[C@@H]3CC[C@H]4C(C)(C)[C@@H](OC(=O)N5CC[C@@H](C(=O)O)C5)CC[C@@]45C[C@@]35CC[C@]21C)C(C)(C)O`: the IC50 in series [1] worked out at 14 µM; in series [2] it was 540 nM. Besides, in the series with Liver microsomes, the Stability result is “Stable”.
Regarding `CC(C)[C@@H](OC(=O)N1CCC1)[C@H]1C[C@@H](C)[C@H]2[C@H](O1)[C@H](O)[C@@]1(C)[C@@H]3CC[C@H]4C(C)(C)[C@@H](OC(=O)N[C@@H]5CCCNC5=O)CC[C@@]45C[C@@]35CC[C@]21C`, the IC50 in series [1] was 6.6 µM; in series [2], 380 nM. Also, the Stability entry with Liver microsomes is listed as “Stable”.
Turning to `CC(C)CC(=O)N1CCO[C@@H](O[C@H]2CC[C@]34C[C@]35CC[C@]3(C)[C@@H]6[C@H](O[C@@H]([C@H](OC(=O)N7CCC7)C(C)C)C[C@H]6C)[C@H](O)[C@@]3(C)[C@@H]5CC[C@H]4C2(C)C)C1`, the IC50 was 11 µM in series [1] and 1300 nM in series [2]. In addition, the Stability result in the series on Liver microsomes is given as “Stable”.
Taken in the same sequence, the figures for `CC(C)[C@@H](OC(=O)N1CCC1)[C@H]1C[C@@H](C)[C@H]2[C@H](O1)[C@H](O)[C@@]1(C)[C@@H]3CC[C@H]4C(C)(C)[C@@H](O[C@H]5CN(C6COC6)CCO5)CC[C@@]45C[C@@]35CC[C@]21C` were 11 µM, 560 nM and “Stable”.
On to `CCO[C@@H]([C@H]1C[C@@H](C)[C@H]2[C@H](O1)[C@H](O)[C@@]1(C)[C@@H]3CC[C@H]4C(C)(C)[C@@H](OC(=O)N5CCN(CC(=O)O)CC5)CC[C@@]45C[C@@]35CC[C@]21C)C(C)(C)O`, for which the IC50 in series [1] was found to be 10 µM; in series [2], 290 nM. Also, the Stability entry in the series on Liver microsomes is recorded as “Stable”.
In the same order, the values of `CCO[C@@H]([C@H]1C[C@@H](C)[C@H]2[C@H](O1)[C@H](O)[C@@]1(C)[C@@H]3CC[C@H]4C(C)(C)[C@@H](O[C@H]5CN([C@H]6CCOC6)CCO5)CC[C@@]45C[C@@]35CC[C@]21C)C(C)(C)O` are 6.2 µM, 420 nM and “Stable”.
Turning to `CCO[C@@H]([C@H]1C[C@@H](C)[C@H]2[C@H](O1)[C@H](O)[C@@]1(C)[C@@H]3CC[C@H]4C(C)(C)[C@@H](OC(=O)N5CCC5)CC[C@@]45C[C@@]35CC[C@]21C)C(C)(C)O`, the IC50 in series [1] was determined as 5 µM; in series [2], 140 nM. For the same compound, the Stability result in the series on Liver microsomes is on record as “Stable”.
With `CCO[C@@H]([C@H]1C[C@@H](C)[C@H]2[C@H](O1)[C@H](O)[C@@]1(C)[C@@H]3CC[C@H]4C(C)(C)[C@@H](O[C@H]5CN(CCF)CCO5)CC[C@@]45C[C@@]35CC[C@]21C)C(C)(C)O`, the IC50 in series [1] worked out at 4.7 µM; in series [2], 240 nM. Also, the Stability entry in the series on Liver microsomes is on record as “Stable”.
For `CC(C)[C@@H](OC(=O)N1CCC1)[C@H]1C[C@@H](C)[C@H]2[C@H](O1)[C@H](O)[C@@]1(C)[C@@H]3CC[C@H]4C(C)(C)[C@@H](OC(=O)N[C@H]5CCCNC5=O)CC[C@@]45C[C@@]35CC[C@]21C`, the values for the IC50 in series [1] and in series [2] were 6.4 µM and 280 nM, respectively. Besides, the Stability result in the series with Liver microsomes is on record as “Stable”.
On to `CC(C)[C@@H](OC(=O)N1CCC1)[C@H]1C[C@@H](C)[C@H]2[C@H](O1)[C@H](O)[C@@]1(C)[C@@H]3CC[C@H]4C(C)(C)[C@@H](O[C@H]5CN([C@@H]6CCNC6=O)CCO5)CC[C@@]45C[C@@]35CC[C@]21C`, for which the IC50 in series [1] amounted to 15 µM; in series [2], 490 nM. For the same compound, the Stability result in the series on Liver microsomes was “Stable”.
With `CC(C)[C@@H](OC(=O)N1CCC1)[C@H]1C[C@@H](C)[C@H]2[C@H](O1)[C@H](O)[C@@]1(C)[C@@H]3CC[C@H]4C(C)(C)[C@@H](OC(=O)NCCCC(=O)O)CC[C@@]45C[C@@]35CC[C@]21C`, the results for the IC50 in series [1] and in series [2] were 7.2 µM and 280 nM, respectively. For the same compound, the Stability entry in the series with Liver microsomes was “Stable”.
For the compound `CCO[C@@H]([C@H]1C[C@@H](C)[C@H]2[C@H](O1)[C@H](O)[C@@]1(C)[C@@H]3CC[C@H]4C(C)(C)[C@@H](O[C@H]5CN(CC(=O)N6CCOCC6)CCO5)CC[C@@]45C[C@@]35CC[C@]21C)C(C)(C)O`, the figures for the IC50 in series [1] and in series [2] were 14 µM and 230 nM, respectively. The Stability entry in the series on Liver microsomes is listed as “Stable”.
Taken in the same sequence, the figures for `CC(C)[C@@H](OC(=O)N1CCC1)[C@H]1C[C@@H](C)[C@H]2[C@H](O1)[C@H](O)[C@@]1(C)[C@@H]3CC[C@H]4C(C)(C)[C@@H](OC(=O)N[C@@H]5CCNC5=O)CC[C@@]45C[C@@]35CC[C@]21C` were 5.9 µM, 180 nM and “Stable”.
In the same order, the values of `CC(C)[C@@H](OC(=O)N1CCC1)[C@H]1C[C@@H](C)[C@H]2[C@H](O1)[C@H](O)[C@@]1(C)[C@@H]3CC[C@H]4C(C)(C)[C@@H](O[C@H]5CN(C(=O)CCC(=O)O)CCO5)CC[C@@]45C[C@@]35CC[C@]21C` are 7.2 µM, 280 nM and “Stable”.
Turning to `CC(=O)N1CCN(C(=O)O[C@H]2CC[C@]34C[C@]35CC[C@]3(C)[C@@H]6[C@H](O[C@@H]([C@H](OC(=O)N7CCC7)C(C)C)C[C@H]6C)[C@H](O)[C@@]3(C)[C@@H]5CC[C@H]4C2(C)C)CC1`, the IC50 amounted to 5.1 µM in series [1] and 190 nM in series [2]. Moreover, the Stability result with Liver microsomes is given as “Stable”.
For the compound `CC(C)[C@@H](OC(=O)N1CCC1)[C@H]1C[C@@H](C)[C@H]2[C@H](O1)[C@H](O)[C@@]1(C)[C@@H]3CC[C@H]4C(C)(C)[C@@H](OC(=O)NCCC(=O)O)CC[C@@]45C[C@@]35CC[C@]21C`, the IC50 in series [1] was 13 µM; in series [2], 610 nM. In addition, the Stability entry with Liver microsomes is on record as “Stable”.
As to `CCO[C@@H]([C@H]1C[C@@H](C)[C@H]2[C@H](O1)[C@H](O)[C@@]1(C)[C@@H]3CC[C@H]4C(C)(C)[C@@H](OC(=O)N[C@H]5CCNC5=O)CC[C@@]45C[C@@]35CC[C@]21C)C(C)(C)O`, the IC50 in series [1] was found to be 2.9 µM; in series [2], 190 nM. In the series with Liver microsomes, the Stability result was “Stable”.
Take `CC(C)[C@@H](OC(=O)N1CCC1)[C@H]1C[C@@H](C)[C@H]2[C@H](O1)[C@H](O)[C@@]1(C)[C@@H]3CC[C@H]4C(C)(C)[C@@H](O[C@H]5CN(C(=O)CN6CCC6)CCO5)CC[C@@]45C[C@@]35CC[C@]21C`: the IC50 was found to be 7.7 µM in series [1] and 110 nM in series [2]. The Stability entry in the series with Liver microsomes is “Stable”.
In the case of `CC(C)[C@@H](OC(=O)N1CCC1)[C@H]1C[C@@H](C)[C@H]2[C@H](O1)[C@H](O)[C@@]1(C)[C@@H]3CC[C@H]4C(C)(C)[C@@H](OC(=O)N5CC(O)C5)CC[C@@]45C[C@@]35CC[C@]21C`, the results for the IC50 in series [1] and in series [2] were 8 µM and 350 nM, respectively. For the same compound, in the series with Liver microsomes, the Stability entry was “Stable”.
With `CCO[C@@H]([C@H]1C[C@@H](C)[C@H]2[C@H](O1)[C@H](O)[C@@]1(C)[C@@H]3CC[C@H]4C(C)(C)[C@@H](O[C@H]5CN(CCC(=O)O)CCO5)CC[C@@]45C[C@@]35CC[C@]21C)C(C)(C)O`, the IC50 in series [1] came out at 9.6 µM; in series [2] it was 310 nM. Moreover, the Stability result in the series on Liver microsomes is “Stable”.
Turning to `CCO[C@@H]([C@H]1C[C@@H](C)[C@H]2[C@H](O1)[C@H](O)[C@@]1(C)[C@@H]3CC[C@H]4C(C)(C)[C@@H](O[C@H]5CN(C6CNC6)CCO5)CC[C@@]45C[C@@]35CC[C@]21C)C(C)(C)O`, the IC50 in series [1] was determined as 2.4 µM; in series [2], 100 nM. For the same compound, the Stability result with Liver microsomes is given as “Stable”.
Taken in the same sequence, the figures for `CC(C)[C@@H](OC(=O)N1CCC1)[C@H]1C[C@@H](C)[C@H]2[C@H](O1)[C@H](O)[C@@]1(C)[C@@H]3CC[C@H]4C(C)(C)[C@@H](OC(=O)N(C)CC(=O)O)CC[C@@]45C[C@@]35CC[C@]21C` were 0.48 µM, 1790 nM and “Stable”.
Taken in the same sequence, the figures for `CCO[C@@H]([C@H]1C[C@@H](C)[C@H]2[C@H](O1)[C@H](O)[C@@]1(C)[C@@H]3CC[C@H]4C(C)(C)[C@@H](O[C@H]5CN(CCCC(=O)O)CCO5)CC[C@@]45C[C@@]35CC[C@]21C)C(C)(C)O` were 6.5 µM, 630 nM and “Stable”.
Turning to `CCO[C@@H]([C@H]1C[C@@H](C)[C@H]2[C@H](O1)[C@H](O)[C@@]1(C)[C@@H]3CC[C@H]4C(C)(C)[C@@H](O[C@H]5CN(CC)CCO5)CC[C@@]45C[C@@]35CC[C@]21C)C(C)(C)O`, the IC50 in series [1] is 2.7 µM; in series [2] it was 210 nM. In addition, the Stability result in the series on Liver microsomes is “Stable”.
